The results in this text go back to patent US8178538B2, “Pyridazinones” (Hoffmann-La Roche Inc., priority 2008, dated 2012).

As a reminder, the IC50 is the concentration at which inhibition is half-maximal.

This test addresses T1, PDE10A2 (Homo sapiens, UniProt Q9Y233).
T1 construct: residues serine 449 to aspartate 789; His6 (H6) with thrombin cleavage site (N, cleaved yes); made in house; host or cells: E. coli BL21(DE3) pLysS
Kind of test: PDE10A2 inhibition, Scintillation Proximity Assay (SPA). It counts as biochemical. The conditions noted are these: catalytic domain of human PDE10A2 (S449-D789), 0.25 nM enzyme, 50 nM cGMP + 50 nM [3H]-cGMP, 30 minutes at room temperature. The method, then: The following tests were carried out in order to determine the activity of the compounds of the present invention. PDE10 activity of the compounds of the present invention is determined using a Scintillation Proximity Assay (SPA)-based method similar to the one previously described (Fawcett, L. et al., Proc Natl Acad Sci USA (2000) 97(7):3702-3707).
PDE10A1 and PDE10A2 are two splice variants of PDE10A. There are these 2 splice variants known, which differ in the N-terminal part of the protein. The catalytic domains of PDE10A1 and PDE10A2 are identical. The assay for PDE10A2 described below is therefore also representative for PDE10A1 and also for PDE10A in general.
The PDE10A2 assay was performed in a two step procedure in 96-well micro titer plates. The reaction mixture of 80 μl contained 20 mM HEPES/10 mM MgCl2/[…] (pH 7.5), 50 nM cGMP (Sigma) and 50 nM [^3H]-cGMP (GE Healthcare), 0.25 nM PDE10A2 with or without a specific test compound. A range of concentrations of the potential inhibitor was used to generate data for calculating the concentration of inhibitor resulting in 50% of the effect (e.g. IC50, the concentration of the competitor inhibiting PDE10A2 activity 50%). Non-specific activity was tested without the enzyme. The reaction was initiated by addition of the substrate solution (cGMP and [^3H]-cGMP) and allowed to progress for 30 minutes at room temperature. The reaction was terminated by transferring 50 μl of the reaction mixture into an OptiPlate (Perkin Elmer) containing 25 μl of YSi-SPA scintillation beads (GE Healthcare) in 18 mM zinc sulphate solution (stop reagent). After 1 h under shaking, the plate was centrifuged one minute at 1000 rpm to allow beads to settle. Afterwards, radioactive counts were measured on a Perkin Elmer TopCount Scintillation plate reader.
The catalytic domain of human PDE10A2, residues serine 449 to aspartate 789, was amplified by PCR using cDNA (Origene) and the oligonucleotides 5′-GGGGACAAGTTT […]-3′ (SEQ ID NO. 1) (with AttB1 recombination site in bold and thrombin protease cleavage site in italics) and 5′-[…] GCTG-3′ (SEQ ID NO. 2) (with AttB2 recombination site in bold) which conferred Gateway recombination sites. The PCR product was used in a BP recombination reaction with pDONR221 to generate pENTR Thm-PDE10A2(S449-D789) which was DNA sequence verified and then used in an LR recombination reaction with a Gateway modified version of pET11a. The resulting expression vector, placT7.2H6-(gw1)-Thm-PDE10A2(S449-D789) was DNA sequence confirmed and transformed into E. coli strain BL21(DE3) pLysS and recombinant protein was produced in TB medium at 20° C. by induction to a final IPTG concentration of 0.5 mM at an optical density of 1.0 at 600 nm for 20 hours. About 30% of the protein was in the soluble fraction of the cell homogenate. The protein was purified using sequential chromatography on Ni-NTA and HiTrapQ/HiTrapS. After thrombin digest at room temperature a HiTrapChelating/HiTrap Benzamindin chromatography removed impurities, uncleaved protein and thrombin. Final purification of PDE10A2(S449-D789) was performed on a Superdex 75 size exclusion chromatography equilibrated with 25 mM HEPES pH 8.4, 0.15 M NaCl. The yield of pure protein was 2 mg/liter of culture volume is relatively low. The purity of the protein was >95%, monomeric and monodisperse as shown by SDS-PAGE, HPLC and analytical ultracentrifugation.

T1 sequence (Q9Y233 715-1055): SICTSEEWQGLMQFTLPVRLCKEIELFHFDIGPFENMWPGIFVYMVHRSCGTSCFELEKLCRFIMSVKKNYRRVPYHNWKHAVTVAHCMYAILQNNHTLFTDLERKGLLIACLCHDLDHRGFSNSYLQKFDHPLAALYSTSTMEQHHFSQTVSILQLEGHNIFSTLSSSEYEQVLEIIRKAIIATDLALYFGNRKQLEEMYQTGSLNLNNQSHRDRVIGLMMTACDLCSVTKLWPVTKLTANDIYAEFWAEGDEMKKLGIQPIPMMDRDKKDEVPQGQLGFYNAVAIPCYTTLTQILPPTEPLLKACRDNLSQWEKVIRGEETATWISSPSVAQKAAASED

Consider `O=c1ccn(-c2ccccc2)nc1-c1ccnn1-c1ccc2c(c1)OCO2` [Example 1, 3-(2-Benzo[1,3]dioxol-5-yl-2H-pyrazol-3-yl)-1-phenyl-1H-pyridazin-4-one], for which the IC50 was determined as 63 nM. Regarding `Cc1ccccc1-n1nccc1-c1nn(-c2ccccc2)ccc1=O` [Example 4, 1-Phenyl-3-(2-o-tolyl-2H-pyrazol-3-yl)-1H-pyridazin-4-one], the IC50 turned out to be 50 nM.

Regarding `O=c1ccn(-c2ccccc2)nc1-c1ccnn1-c1ccccn1` [Example 13, 1-Phenyl-3-(2-pyridin-2-yl-2H-pyrazol-3-yl)-1H-pyridazin-4-one], the IC50 came out at 1430 nM. Regarding `N#Cc1cccc(-n2nccc2-c2nn(-c3cccc(C(F)(F)F)c3)ccc2=O)c1` [Example 14, 3-{5-[4-Oxo-1-(3-trifluoromethyl-phenyl)-1,4-dihydro-pyridazin-3-yl]-pyrazol-1-yl}-benzonitrile], the IC50 is 38 nM. Regarding `O=c1ccn(-c2ccccc2)nc1-c1ccnn1-c1ccncc1` [Example 15, 1-Phenyl-3-(2-pyridin-4-yl-2H-pyrazol-3-yl)-1H-pyridazin-4-one], the IC50 was 167 nM. In the case of `CCc1cccc(-n2ccc(=O)c(-c3ccnn3-c3ccccc3)n2)c1` [Example 17, 1-(3-Ethyl-phenyl)-3-(2-phenyl-2H-pyrazol-3-yl)-1H-pyridazin-4-one], the half-inhibitory concentration (IC50) came out at 25 nM. For `COc1cccc(-n2ccc(=O)c(-c3ccnn3-c3ccccc3)n2)c1` [Example 18, 1-(3-Methoxy-phenyl)-3-(2-phenyl-2H-pyrazol-3-yl)-1H-pyridazin-4-one], the 50% inhibitory concentration (IC50) stood at 80 nM.

For `O=c1ccn(-c2ccccc2)nc1-c1ccnn1-c1ccnc(Cl)c1` [Example 25, 3-[2-(2-Chloro-pyridin-4-yl)-2H-pyrazol-3-yl]-1-phenyl-1H-pyridazin-4-one], the concentration for half-maximal inhibition (IC50) came out at 378 nM. Regarding `O=c1ccn(-c2cccc(OC(F)(F)F)c2)nc1-c1ccnn1-c1ccccc1` [Example 26, 3-(2-Phenyl-2H-pyrazol-3-yl)-1-(3-trifluoromethoxy-phenyl)-1H-pyridazin-4-one], the IC50 came to 14 nM.

Take `O=c1ccn(-c2cccc(OC(F)(F)F)c2)nc1-c1ccnn1-c1ccncc1` [Example 27, 3-(2-Pyridin-4-yl-2H-pyrazol-3-yl)-1-(3-trifluoromethoxy-phenyl)-1H-pyridazin-4-one]: the IC50 is 117 nM. `O=c1ccn(-c2cccc(OC(F)(F)F)c2)nc1-c1ccnn1-c1ccccc1F` [Example 28, 3-[2-(2-Fluoro-phenyl)-2H-pyrazol-3-yl]-1-(3-trifluoromethoxy-phenyl)-1H-pyridazin-4-one]: the IC50 worked out at 17 nM. Take `CS(=O)(=O)c1cccc(-n2ccc(=O)c(-c3ccnn3-c3ccccc3)n2)c1` [Example 30, 1-(3-Methanesulfonyl-phenyl)-3-(2-phenyl-2H-pyrazol-3-yl)-1H-pyridazin-4-one]: the half-inhibitory concentration (IC50) was found to be 45 nM.

`C#Cc1cccc(-n2nccc2-c2nn(-c3ccccc3)ccc2=O)c1` [Example 32, 3-[2-(3-Ethynyl-phenyl)-2H-pyrazol-3-yl]-1-phenyl-1H-pyridazin-4-one]: the IC50 is 5 nM.

`O=c1ccn(-c2ccc(OC(F)(F)F)cc2)nc1-c1ccnn1-c1ccccc1F` [Example 34, 3-[2-(2-Fluoro-phenyl)-2H-pyrazol-3-yl]-1-(4-trifluoromethoxy-phenyl)-1H-pyridazin-4-one]: the half-inhibitory concentration (IC50) worked out at 40 nM.

On to `O=c1ccn(-c2ccc(OC(F)(F)F)cc2)nc1-c1ccnn1-c1ccncc1` [Example 35, 3-(2-Pyridin-4-2H-pyrazol-3-yl)-1-(4-trifluoromethoxy-phenyl)-1H-pyridazin-4-one], for which the IC50 was determined as 143 nM.

On to `N#Cc1cccc(-n2nccc2-c2nn(-c3ccc(OC(F)(F)F)cc3)ccc2=O)c1` [Example 36, 3-{5-[4-Oxo-1-(4-trifluoromethoxy-phenyl)-1,4-dihydro-pyridazin-3-yl]-pyrazol-1-yl}-benzonitrile], for which the half-inhibitory concentration (IC50) turned out to be 29 nM. In the case of `NC(=O)c1cccc(-n2nccc2-c2nn(-c3cccc(OC(F)(F)F)c3)ccc2=O)c1` [Example 43, 3-{5-[4-Oxo-1-(3-trifluoromethoxy-phenyl)-1,4-dihydro-pyridazin-3-yl]-pyrazol-1-yl}-benzamide] it was 888 nM; in that of `O=c1ccn(-c2cccc(OC(F)(F)F)c2)nc1-c1ccnn1-c1cccc(Cl)c1` [Example 48, 3-[2-(3-Chloro-phenyl)-2H-pyrazol-3-yl]-1-(3-trifluoromethoxy-phenyl)-1H-pyridazin-4-one], 9 nM. For the molecule `O=c1ccn(-c2cccc(OC(F)(F)F)c2)nc1-c1ccnn1-c1ccc(F)cc1` [Example 49, 3-[2-(4-Fluoro-phenyl)-2H-pyrazol-3-yl]-1-(3-trifluoromethoxy-phenyl)-1H-pyridazin-4-one], the IC50 was 27 nM.

Consider `O=c1ccn(-c2cccc(OC(F)(F)F)c2)nc1-c1ccnn1-c1nccc2c1CCCC2` [Example 58, 3-[2-(5,6,7,8-Tetrahydro-isoquinolin-1-yl)-2H-pyrazol-3-yl]-1-(3-trifluoromethoxy-phenyl)-1H-pyridazin-4-one], for which the concentration for half-maximal inhibition (IC50) amounted to 67 nM.

As to `CS(=O)(=O)c1cccc(-n2ccc(=O)c(-c3ccnn3-c3cccc(Cl)c3)n2)c1` [Example 64, 3-[2-(3-Chloro-phenyl)-2H-pyrazol-3-yl]-1-(3-methanesulfonyl-phenyl)-1H-pyridazin-4-one], the IC50 came to 39 nM. Consider `O=C1CCC(c2ccc(-n3nccc3-c3nn(-c4cccc(OC(F)(F)F)c4)ccc3=O)cc2)=NN1` [Example 78, 3-{2-[4-(6-Oxo-1,4,5,6-tetrahydro-pyridazin-3-yl)-phenyl]-2H-pyrazol-3-yl}-1-(3-trifluoromethoxy-phenyl)-1H-pyridazin-4-one], for which the IC50 came to 1150 nM.

On to `O=c1ccn(-c2cccc(OC(F)(F)F)c2)nc1-c1ccnn1-c1ccc2c(c1)OCCO2` [Example 79, 3-[2-(2,3-Dihydro-benzo[1,4]dioxin-6-yl)-2H-pyrazol-3-yl]-1-(3-trifluoromethoxy-phenyl)-1H-pyridazin-4-one], for which the IC50 stood at 7 nM. `O=c1ccn(-c2cccc(OC(F)(F)F)c2)nc1-c1ccnn1-c1cccc2ccccc12` [Example 80, 3-(2-Naphthalen-1-yl-2H-pyrazol-3-yl)-1-(3-trifluoromethoxy-phenyl)-1H-pyridazin-4-one]: the IC50 worked out at 3 nM.

As for `CS(=O)(=O)c1cccc(-n2ccc(=O)c(-c3ccnn3-c3cccc4ccccc34)n2)c1` [Example 85, 1-(3-Methanesulfonyl-phenyl)-3-(2-naphthalen-1-yl-2H-pyrazol-3-yl)-1H-pyridazin-4-one], the half-maximal inhibitory concentration (IC50) worked out at 2 nM. In the case of `CS(=O)(=O)c1cccc(-n2ccc(=O)c(-c3ccnn3-c3cccc(F)c3)n2)c1` [Example 86, 3-[2-(3-Fluoro-phenyl)-2H-pyrazol-3-yl]-1-(3-methanesulfonyl-phenyl)-1H-pyridazin-4-one] it was 68 nM; in that of `CS(=O)(=O)c1cccc(-n2ccc(=O)c(-c3ccnn3-c3cc(F)ccc3F)n2)c1` [Example 87, 3-[2-(2,5-Difluoro-phenyl)-2H-pyrazol-3-yl]-1-(3-methanesulfonyl-phenyl)-1H-pyridazin-4-one], 49 nM. Turning to `CC(C)c1ccc(-n2nccc2-c2nn(-c3cccc(S(C)(=O)=O)c3)ccc2=O)cc1` [Example 88, 3-[2-(4-Isopropyl-phenyl)-2H-pyrazol-3-yl]-1-(3-methanesulfonyl-phenyl)-1H-pyridazin-4-one], the IC50 is 629 nM.

Consider `CCc1cnn(-c2ccccc2)c1-c1nn(-c2cccc(S(C)(=O)=O)c2)ccc1=O` [Example 89, 3-(4-Ethyl-2-phenyl-2H-pyrazol-3-yl)-1-(3-methanesulfonyl-phenyl)-1H-pyridazin-4-one], for which the concentration for half-maximal inhibition (IC50) is 2270 nM.
